Values joined by “and” are separate entries in the source; they are usually repeats but may differ in a detail not shown here. Identical values can stand only once. Like-named read-outs stand apart in the source and are kept apart here.
What was measured:
Assay type in all cases: in vivo
[1] = tested on: Spodoptera littoralis (Egyptian cotton leaf worm); assay: Spodoptera littoralis larvicide L1, feeding/contact, cotton leaf discs; conditions: single compound
Text: (§1) The action to be expected E for a given active ingredient combination obeys the so-called COLBY formula and can be calculated as follows (COLBY, S.R. “Calculating synergistic and antagonistic responses of herbicide combination”. Weeds, Vol. 15, pages 20-22; 1967):
(§2) ppm=milligrams of active ingredient (=a.i.) per liter of spray mixture X=% action by active ingredient A) using p ppm of active ingredient Y=% action by active ingredient B) using q ppm of active ingredient.
(§3) According to COLBY, the expected (additive) action of active ingredients A)+B) using p+q ppm of active ingredient is
(§4) If the action actually observed (O) is greater than the expected action (E), then the action of the combination is super-additive, i.e. there is a synergistic effect. In mathematical terms the synergism factor SF corresponds to O/E. In the agricultural practice an SF of ≧1.2 indicates significant improvement over the purely complementary addition of activities (expected activity), while an SF of ≦0.9 in the practical application routine signals a loss of activity compared to the expected activity.
Spodoptera Littoralis (Egyptian Cotton Leaf Worm)
(Larvicide L1, Feeding/Contact)
Cotton leaf discs are placed on agar in Petri dishes and sprayed with test solutions in an application chamber. After drying, the leaf discs are infested with 10 L1 larvae. The samples are checked for mortality 5 days after treatment. 3 replicates per treatment were evaluated. (1 PPM=1 mg l^−1)

[2] = tested on: Heliothis virescens (tobacco budworm); assay: Heliothis virescens ovo-larvicide, feeding/contact, eggs on filter paper in Petri dishes; conditions: for AVERAGE DEAD IN % (EGGS) / AVERAGE DEAD IN % (LARVAE): single compound, 7 days
Text: as §1, §2, §3, §4
Heliothis Virescens (Tobacco Budworm):
(Ovo-Larvicide, Feeding/Contact)
30-35 fresh eggs (0-24 h old), deposited on filter paper, are placed in Petri dishes on top of a layer of artificial diet and 0.8 ml of diluted test solutions are pipetted onto them. After an incubation period of 7 days, samples are checked for egg and larval mortality. 3 replicates per treatment were evaluated.

[3] = tested on: Heliothis virescens (tobacco budworm); assay: Heliothis virescens eggs in 24-well microtiter plate on artificial diet, larval mortality; conditions: for pest or weed control at 6.25 ppm / pest or weed control at 12.5 ppm / pest or weed control at 25 ppm / pest or weed control at 50 ppm / pest or weed control at 100 ppm / pest or weed control at 200 ppm: Heliothis virescens, 96 h, read-out: AVERAGE DEAD IN %
Text: as §1, §2, §3, §4
Heliothis Virescens (Tobacco Budworm)
Eggs (0-24 h old) are placed in 24-well microtiter plate on artificial diet and treated with test solutions (DMSO) by pipetting. After an incubation period of 4 days, samples are checked for larval mortality.

[4] = tested on: Tetranychus urticae (two spotted spider mite); assay: Tetranychus urticae contact/feeding activity on bean plants, adult mortality
Text: as §1, §2, §3, §4
Tetranychus Urticae (Two Spotted Spider Mite)
(Contact/Feeding Activity)
Bean plants are infested with mite populations of mixed ages. 1 day after infestation, plants are treated in a spray chamber with diluted test solutions. 1 and 8 days later, samples are checked for adult mortality. 2 replicates per treatment were evaluated.

[5] = tested on: Tetranychus urticae (two-spotted spider mite); assay: Tetranychus urticae bean leaf discs in 24-well microtiter plates, mixed population mortality; conditions: 8 days
Text: as §1, §2, §3, §4
Tetranychus Urticae (Two-Spotted Spider Mite)
Bean leaf discs on agar in 24-well microtiter plates are sprayed with test solutions (DMSO). After drying, the leaf discs are infested with mite populations of mixed ages. 8 days later, discs are checked for mixed population mortality.

## CCOC(=O)OC1=C(c2cc(C)ccc2C)C(=O)N[C@]12CC[C@@H](OC)CC2 [Spirotetramat, spirotetramat]
[1]; 25 ppm AI
  AVERAGE DEAD IN % AFTER 5 DAYS: 23%
[1]; 50 PPM AI
  AVERAGE DEAD IN % AFTER 5 DAYS: 17% and 33%
[1]; 50 ppm AI
  AVERAGE DEAD IN % AFTER 5 DAYS: 33%
[1]; 100 PPM AI
  AVERAGE DEAD IN % AFTER 5 DAYS: 43% and 67%
[1]; 100 ppm AI
  AVERAGE DEAD IN % AFTER 5 DAYS: 67%
[2]; 100 ppm AI
  AVERAGE DEAD IN % (EGGS): 0%
  AVERAGE DEAD IN % (LARVAE): 78%
[2]; 200 ppm AI
  AVERAGE DEAD IN % (EGGS): 67% and 65%
  AVERAGE DEAD IN % (LARVAE): 100% and 98%
[3]; Spirotetramat alone 6.25 ppm AI
  pest or weed control at 6.25 ppm: 0%
[3]; Spirotetramat alone 12.5 ppm AI
  pest or weed control at 12.5 ppm: 0%
[3]; Spirotetramat alone 25 ppm AI
  pest or weed control at 25 ppm: 0%
[3]; Spirotetramat alone 50 ppm AI
  pest or weed control at 50 ppm: 0%
[3]; Spirotetramat alone 100 ppm AI
  pest or weed control at 100 ppm: 0%
[3]; Spirotetramat alone 200 ppm AI
  pest or weed control at 200 ppm: 0%
[3]; single compound at 6.25 ppm AI
  pest or weed control at 6.25 ppm: 0%
[3]; single compound at 12.5 ppm AI
  pest or weed control at 12.5 ppm: 0%
[3]; single compound at 25 ppm AI
  pest or weed control at 25 ppm: 0%
[3]; single compound at 50 ppm AI
  pest or weed control at 50 ppm: 0%
[3]; single compound at 100 ppm AI
  pest or weed control at 100 ppm: 0%
[3]; single compound at 200 ppm AI
  pest or weed control at 200 ppm: 0%
[4]; 0.1 ppm alone
  AVERAGE DEAD IN % AFTER 8 DAYS: 10%
[4]; 0.2 ppm alone
  AVERAGE DEAD IN % AFTER 8 DAYS: 33%
[4]; 0.4 ppm alone
  AVERAGE DEAD IN % AFTER 8 DAYS: 38%
[4]; Spirotetramat alone 0.1 ppm AI
  AVERAGE DEAD IN % AFTER 1 DAY: 13%
[4]; Spirotetramat alone 0.2 ppm AI
  AVERAGE DEAD IN % AFTER 1 DAY: 18%
[4]; Spirotetramat alone 0.4 ppm AI
  AVERAGE DEAD IN % AFTER 1 DAY: 23%

## CN1COCN(Cc2cnc(Cl)s2)/C1=N\[N+](=O)[O-] [Thiamethoxam, thiamethoxam]
[1]; 0.2 PPM AI
  AVERAGE DEAD IN % AFTER 5 DAYS: 7% and 10%
[1]; 0.2 ppm AI
  AVERAGE DEAD IN % AFTER 5 DAYS: 10%
[1]; 0.4 PPM AI
  AVERAGE DEAD IN % AFTER 5 DAYS: 13%
[1]; 0.4 ppm AI
  AVERAGE DEAD IN % AFTER 5 DAYS: 13%
[1]; 0.8 PPM AI
  AVERAGE DEAD IN % AFTER 5 DAYS: 30%
[1]; 0.8 ppm AI
  AVERAGE DEAD IN % AFTER 5 DAYS: 30%
[2]; 100 ppm AI
  AVERAGE DEAD IN % (EGGS): 0%
  AVERAGE DEAD IN % (LARVAE): 78%
[2]; 200 ppm AI
  AVERAGE DEAD IN % (EGGS): 0%
  AVERAGE DEAD IN % (LARVAE): 80%
[3]; Thiamethoxam alone 6.25 ppm AI
  pest or weed control at 6.25 ppm: 0%
[3]; Thiamethoxam alone 12.5 ppm AI
  pest or weed control at 12.5 ppm: 0%
[3]; Thiamethoxam alone 25 ppm AI
  pest or weed control at 25 ppm: 0%
[3]; Thiamethoxam alone 50 ppm AI
  pest or weed control at 50 ppm: 0%
[3]; Thiamethoxam alone 100 ppm AI
  pest or weed control at 100 ppm: 25%
[3]; Thiamethoxam alone 200 ppm AI
  pest or weed control at 200 ppm: 65%
[3]; single compound at 6.25 ppm AI
  pest or weed control at 6.25 ppm: 0%
[3]; single compound at 12.5 ppm AI
  pest or weed control at 12.5 ppm: 0%
[3]; single compound at 25 ppm AI
  pest or weed control at 25 ppm: 0%
[3]; single compound at 50 ppm AI
  pest or weed control at 50 ppm: 0%
[3]; single compound at 100 ppm AI
  pest or weed control at 100 ppm: 25%
[3]; single compound at 200 ppm AI
  pest or weed control at 200 ppm: 65%
[4]; 200 ppm alone
  AVERAGE DEAD IN % AFTER 8 DAYS: 5%
[4]; Thiamethoxam alone 200 ppm AI
  AVERAGE DEAD IN % AFTER 1 DAY: 0%
[5]; 25 ppm alone
  AVERAGE DEAD IN %: 0%
[5]; 50 ppm alone
  AVERAGE DEAD IN %: 13%
[5]; 100 ppm alone
  AVERAGE DEAD IN %: 38%
[5]; 200 ppm alone
  AVERAGE DEAD IN %: 0%
[5]; 400 ppm alone
  AVERAGE DEAD IN %: 0%
[5]; 800 ppm alone
  AVERAGE DEAD IN %: 13%
[5]; Thiamethoxam alone, 25 ppm, Table 122
  AVERAGE DEAD IN %: 0%
[5]; Thiamethoxam alone, 50 ppm, Table 122
  AVERAGE DEAD IN %: 13%
[5]; Thiamethoxam alone, 100 ppm, Table 122
  AVERAGE DEAD IN %: 38%
[5]; Thiamethoxam alone, 200 ppm, Table 122
  AVERAGE DEAD IN %: 0%
[5]; Thiamethoxam alone, 400 ppm, Table 122
  AVERAGE DEAD IN %: 0%
[5]; Thiamethoxam alone, 800 ppm, Table 122
  AVERAGE DEAD IN %: 13%

## emamectin benzoate
[1]; 0.003125 PPM AI
  AVERAGE DEAD IN % AFTER 5 DAYS: 20%
[1]; 0.00625 PPM AI
  AVERAGE DEAD IN % AFTER 5 DAYS: 23%
[1]; 0.0125 PPM AI
  AVERAGE DEAD IN % AFTER 5 DAYS: 30% and 27%
[2]; egg mortality, 7 days incubation
  activity on eggs: inactive
[2]; 0.0015 ppm AI
  AVERAGE DEAD IN % (LARVAE): 5%
[2]; 0.003 ppm AI
  AVERAGE DEAD IN % (LARVAE): 5%
[2]; 0.006 ppm AI
  AVERAGE DEAD IN % (LARVAE): 10%
[3]; single compound at 0.00075 ppm AI
  AVERAGE DEAD IN %: 0%
[3]; single compound at 0.0015 ppm AI
  AVERAGE DEAD IN %: 0%
[3]; single compound at 0.003 ppm AI
  AVERAGE DEAD IN %: 0%
[3]; single compound at 0.006 ppm AI
  AVERAGE DEAD IN %: 0%
[3]; single compound at 0.012 ppm AI
  AVERAGE DEAD IN %: 55%
[3]; single compound at 0.024 ppm AI
  AVERAGE DEAD IN %: 93%
[4]; 0.0125 ppm alone
  AVERAGE DEAD IN % AFTER 8 DAYS: 5%
[4]; 0.025 ppm alone
  AVERAGE DEAD IN % AFTER 8 DAYS: 23%
[4]; 0.05 ppm alone
  AVERAGE DEAD IN % AFTER 8 DAYS: 38%
[4]; Emamectin benzoate alone 0.0125 ppm AI
  AVERAGE DEAD IN % AFTER 1 DAY: 0%
[4]; Emamectin benzoate alone 0.025 ppm AI
  AVERAGE DEAD IN % AFTER 1 DAY: 8%
[4]; Emamectin benzoate alone 0.05 ppm AI
  AVERAGE DEAD IN % AFTER 1 DAY: 0%

— patent US20130085064A1, “PESTICIDAL MIXTURES CONTAINING ISOXAZOLINE DERIVATIVES AND INSECTICIDE OR NEMATOICIDAL BIOLOGICAL AGENT” (priority 2010, published 2013)
